Assay [1] concerns the target human dopamine D2Long (D2L) receptors (Homo sapiens, UniProt P14416).
In assay [2] the target is T1, human dopamine D1 receptor (Homo sapiens, UniProt P21728).
T1 construct: A 1.4 Kb Hind III to Xho I fragment was subcloned into the vector pMMLV; expressed in transfected cells; host or cells: CHO cells, clone CHO-D1M#9 (plasmid pHD1MMLV), membranes
As to the kind of experiment: [3H]-SCH-23390 binding to cloned human dopamine D1 receptors (CHO cell membranes).

In the next assay the target is T2, D1 receptor (Homo sapiens, UniProt P21728).
T2 construct: expressed in transfected cells; host or cells: D1 transfected CHO cell line
As to the kind of experiment: D1 Activation Adenylyl Cyclase Assay (cAMP FlashPlate, D1 transfected CHO cell line). Format: cell-based. The method, then:
D1 Activation Adenylyl Cyclase Assay
Purpose: To measure D1-agonist activity compounds using an Adenylyl Cyclase Activation Flash Plate Assay from NEN.
Buffers: Activation and Detection buffers are provided from NEN: Catalog # SMP004A.
Maintenance of D1 transfected CHO cell line: • 1. Cells are grown in a 150 cc flask in an incubator at 37° C. with 5% CO2 for 2-3 days (4 maximum) until confluent. • 2. Aspirate off old media (Cells adhere to the plastic flask), wash 2× with sterile PBS. • 3. Add ˜5 mL of Trypsin EDTA (enough to cover bottom of the flask) for 5 min. at RT. • 4. Stop digestion with 15 mL of Media (Ham's F12 plus 10% FBS, 1% P/S, 400 μg/mL G418). • Bang flask on counter to release them from the flask. • 5. Add 2 mL of this to 30 mL of Media in a fresh flask. Return to incubator. Preparation of Cells for Assay: • 1. Loosen the cells with 5 mL Vercine (EDTA)/flask for 10 minutes in incubator. • 2. Add 20 mL of Serum-free media/flask. Transfer to 50-mL Falcon tube. • 3. Spin down cells at 1000 RPM for 5 minutes at 4° C. • 4. Aspirate off old media and resuspend in 5 mL of Serum-free media/plate to be done. • 5. Dilute 10 μL 1/10 in 90 μL Trypan Blue solution and count with a hemocytometer. • Count (live cells only) all four areas and average them. • Count X 10^5 equals cells/mL (including accounting for dilution in Trypan). • 6. Dilute to 50,000 cells/50 μL (1,000,000 cells/mL) in Serum-free media. • 7. Put 50 μL/well in Rows 3-12 of a cAMP FlashPlate. • 8. Put in incubator at 37° C. for 2-4 hours, to allow cells to recover and attach. Adenylyl Cyclase Activation Assay: • 1. Prepare the cAMP standards: • Add 130 μL/well of stimulation buffer to each row of a separate 96-well “standard” plate, 2 columns/plate. • Dilute stock cAMP standard 1/5 with stimulation buffer (final concentration is 1000 pmol/mL). Add 130 μL of this to row A. • Make 1/2 serial dilutions by adding 130 μL from each well to the next (A-G), mixing between each. • Final concentrations are: • A: 500, B: 250, C: 125, D: 62.5, E: 31.25, F: 15.6, G: 7.8, H: 0 pmol/mL. • Place 100 μL from each row from 2 columns of the standard plate into columns 1 and 2 of each “reaction” plate. • 2. Prepare the negative and positive control in the “reaction” plate: • Column 3, rows A-D, add 100 μL stimulation buffer (negative control). • Column 3, rows E-H, add 90 μL of stimulation buffer plus 10 μL of 200 μM APO (positive control, […]). (10 μL 10 mM APO, plus 490 μL stim. buffer=1/50 dilution.) • 3. Prepare the agonist compound dilutions in the “compound” plate: • Add 80 μL of stimulation buffer to row A (One column for each compound), and 90 μL of stimulation buffer to rows B—H. • Add 20 μL of 10 mM of each compound to appropriate row A. • Make 1/10 serial dilutions by adding 10 μL from each well to the next (A-H), mixing between each. • 4. […]. Prepare Detection/Stop buffer by adding 90 μL/plate of cAMP-^125I to 10 mL/plate plus 6 mL (for dead volume) of detection buffer. Steps 6-8 performed with the Multi-Mek. • 6. Add 50 μL to each well of the FlashPlate with CHO cells set up earlier. • 7. Incubate at RT for 8 minutes. • 8. Stop reaction by adding 100 μL of detection/stop buffer to each well. • 9. Cover with plastic film and incubate at RT for 16-24 hours (don't wait more than 24 hours). • 10. Count in a Packard Top-Count. Calculations: • 1. Raw signals generated by cAMP standard wells, without cells, are averaged at each cAMP concentration and converted to % B/Bo by dividing the raw signal at each cAMP concentration by the raw signal with no cAMP added. • 2. These values are used to generate a standard curve by plotting cAMP concentration versus % B/Bo. • 3. Raw data for each compound at each concentration is also converted to % B/B. by the same method. • 4. These values are then converted to pmol cAMP/mL using the standard curve. • 5. These cAMP values are then averaged across the three replicates for each compound concentration. • 6. […]

Where [3] appears, read: competitive binding, [3H]-SCH-23390, cloned human D1 in CHO membranes, read-out: D1 affinity Ki.
The mark [4] stands for this setting: agonist activity at the D1 receptor, adenylate cyclase assay, D1 transfected CHO cell line, read-out: D1 EC50.

Counter-ions that a name gives are not always drawn. Like-named read-outs stand apart in the source and are kept apart here.

T2 sequence (P21728 whole entry): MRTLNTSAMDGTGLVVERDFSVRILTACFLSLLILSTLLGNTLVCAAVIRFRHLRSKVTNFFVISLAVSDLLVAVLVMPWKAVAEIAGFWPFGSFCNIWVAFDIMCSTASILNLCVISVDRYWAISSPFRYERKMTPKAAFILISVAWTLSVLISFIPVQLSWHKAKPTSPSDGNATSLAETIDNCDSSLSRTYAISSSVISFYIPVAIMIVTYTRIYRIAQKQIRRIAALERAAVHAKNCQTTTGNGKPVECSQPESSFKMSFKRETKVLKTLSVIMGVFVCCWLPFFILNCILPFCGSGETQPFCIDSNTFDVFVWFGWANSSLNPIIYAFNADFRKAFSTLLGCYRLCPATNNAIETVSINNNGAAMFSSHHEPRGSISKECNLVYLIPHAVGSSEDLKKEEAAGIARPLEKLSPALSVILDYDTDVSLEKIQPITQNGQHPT
T1 sequence (P21728 whole entry, the tested form may be a part): as the sequence (P21728 whole entry) above
Sequence of human dopamine D2Long (D2L) receptors (P14416 whole entry): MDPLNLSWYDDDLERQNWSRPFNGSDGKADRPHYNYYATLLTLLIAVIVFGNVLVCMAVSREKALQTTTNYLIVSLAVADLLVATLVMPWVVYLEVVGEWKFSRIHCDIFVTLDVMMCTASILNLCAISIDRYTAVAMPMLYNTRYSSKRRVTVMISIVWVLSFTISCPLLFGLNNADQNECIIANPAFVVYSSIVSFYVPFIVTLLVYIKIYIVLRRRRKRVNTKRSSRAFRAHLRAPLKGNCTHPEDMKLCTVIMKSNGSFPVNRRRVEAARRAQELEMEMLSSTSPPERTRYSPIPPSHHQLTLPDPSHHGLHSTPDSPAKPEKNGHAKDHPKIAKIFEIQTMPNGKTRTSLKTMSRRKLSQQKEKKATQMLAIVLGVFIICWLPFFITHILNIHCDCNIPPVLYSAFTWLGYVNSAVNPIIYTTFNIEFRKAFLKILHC

As usually defined, the Ki is the dissociation constant of the complex between target and ligand, obtained from inhibition or displacement. In general, EC50 refers to the midpoint of the concentration-response curve. As to `Cc1ccc2c(c1O)C[C@@H](C1CCN(S(=O)(=O)Cc3ccccc3)CC1)O[C@H]2CN` [Example 142, (1R,3S)-1-Aminomethyl-6-methyl-3-(1-phenylmethanesulfonyl-piperidin-4-yl)-isochroman-5-ol hydrochloride], the inhibition constant Ki in assay [1] is ≥ 100000 nM; in assay [2] (setting [3]), 18 nM. At D1 receptor (setting [4]), the EC50 is 1.9 nM.
On the same counts, the results for `Cc1ccc2c(c1O)C[C@@H](C1CCN(Cc3ccc(Cl)cc3Cl)CC1)O[C@H]2CN` [Example 59, (1R,3S)-1-Aminomethyl-3-[1-(2,4-dichloro-benzyl)-piperidin-4-yl]-6-methyl-isochroman-5-ol dihydrochloride] are 443 nM, 46.2 nM and 12 nM.
In the case of `Cc1ccc2c(c1O)C[C@@H](C1CCN(C(=O)Oc3ccccc3O)CC1)O[C@H]2CN` [Example 121, 4-((1R,3S)-1-Aminomethyl-5-hydroxy-6-methyl-isochroman-3-yl)-piperidine-1-carboxylic acid 2-hydroxy-phenyl ester hydrochloride], the figures for the Ki in assay [1] and in assay [2] were 613 nM and 31 nM, respectively. For the same compound, at D1 receptor, the EC50 was 2.5 nM.
For the compound `Cc1ccc2c(c1O)C[C@@H](C1CCN(CCNC(=O)Nc3ccccc3)CC1)O[C@H]2CN` [Example 193, 1-{2-[4-((1R,3S)-1-Aminomethyl-5-hydroxy-6-methyl-isochroman-3-yl)piperidin-1-yl]-ethyl}-3-phenylurea dihydrobromide], the Ki in assay [1] is 284 nM; in assay [2] (setting [3]), 50 nM. For the same compound, on D1 receptor (setting [4]), the 50% effective concentration (EC50) came out at 43 nM.
On the same counts, the results for `Cc1ccc2c(c1O)C[C@@H](C1CCN(C(=O)N3CCCC3)CC1)O[C@H]2CN` [Example 135, [4-((1R,3S)-1-Aminomethyl-5-hydroxy-6-methyl-isochroman-3-yl)-piperidin-1-yl]-pyrrolidin-1-yl-methanone hydrochloride] are ≥ 100000 nM, 61.5 nM and 2.8 nM.
For `Cc1ccc2c(c1O)C[C@@H](C1CCN(C/C=C/c3ccccc3)CC1)O[C@H]2CN` [Example 109, (1R,3S)-1-Aminomethyl-6-methyl-3-[1-(3-phenyl-allyl)-piperidin-4-yl]-isochroman-5-ol dihydrobromide], the figures for the inhibitory constant (Ki) in assay [1] and in assay [2] (setting [3]) were 212 nM and 108 nM, respectively. Moreover, the EC50 at D1 receptor (setting [4]) came out at 102 nM.
Consider `CCCCN(CCCC)C(=O)N1CCC([C@@H]2Cc3c(ccc(C)c3O)[C@H](CN)O2)CC1` [Example 139, 4-((1R,3S)-1-Aminomethyl-5-hydroxy-6-methyl-isochroman-3-yl)-piperidine-1-carboxylic acid dibutylamide hydrochloride], for which the Ki in assay [1] was determined as 204 nM; in assay [2] (setting [3]), 137 nM. In addition, the EC50 at D1 receptor (setting [4]) came to 0.11 nM.
In the same order, the values of `Cc1ccc2c(c1O)C[C@@H](C1CCN(CCC(C)NC(=O)c3ccc(Cl)cc3Cl)CC1)O[C@H]2CN` (stereo partly drawn) [Example 17, N-{3-[4-((1R,3S)-1-Aminomethyl-5-hydroxy-6-methyl-isochroman-3-yl)-piperidin-1-yl]-1-methyl-propyl}-2,4-dichloro-benzamide dihydrochloride] are ≥ 100000 nM, 138 nM and 18 nM.
On the same counts, the results for `Cc1ccc2c(c1O)C[C@@H](C1CCN(CCC(C)NC(=O)c3ccc4ccccc4c3)CC1)O[C@H]2CN` (stereo partly drawn) [Example 19, Naphthalene-2-carboxylic acid {3-[4-((1R,3S)-1-aminomethyl-5-hydroxy-6-methyl-isochroman-3-yl)-piperidin-1-yl]-1-methyl-propyl}-amide dihydrochloride] are 310 nM, 158 nM and 6.1 nM.
On the same counts, the results for `Cc1ccc2c(c1O)C[C@@H](C1CCN(C(=O)Nc3cc(C(F)(F)F)ccc3F)CC1)O[C@H]2CN` [Example 124, 4-((1R,3S)-1-Aminomethyl-5-hydroxy-6-methyl-isochroman-3-yl)-piperidine-1-carboxylic acid (2-fluoro-5-trifluoromethyl-phenyl)-amide hydrobromide] are ≥ 10000 nM, 486 nM and 20 nM.
In the case of `Cc1ccc2c(c1O)C[C@@H](C1CCN(C(=O)Oc3ccccc3Cl)CC1)O[C@H]2CN` [Example 116, 4-((1R,3S)-1-Aminomethyl-5-hydroxy-6-methyl-isochroman-3-yl)-piperidine-1-carboxylic acid 2-chloro-phenyl ester hydrochloride], the results for the Ki in assay [1] and in assay [2] were ≥ 100000 nM and 32.6 nM, respectively. The compound further yielded an EC50 on D1 receptor of 4.6 nM.
`Cc1ccc2c(c1O)C[C@@H](C1CCN(Cc3ccccc3)CC1)O[C@H]2CN1CCCC1` [Example 178, (1R,3S)-3-(1-Benzyl-piperidin-4-yl)-6-methyl-1-pyrrolidin-1-ylmethyl-isochroman-5-ol]: the inhibition constant (Ki) in assay [1] stood at 181 nM. At D1 receptor (setting [4]), the EC50 was ≥ 10000 nM.
As to `Cc1ccc2c(c1O)C[C@@H](C1CCN(CCC(C)NC(=O)c3ccc(Cl)cc3)CC1)O[C@H]2CN` (stereo partly drawn) [Example 13, N-{3-[4-((1R,3S)-1-Aminomethyl-5-hydroxy-6-methyl-isochroman-3-yl)-piperidin-1-yl]-1-methyl-propyl}-4-chloro-benzamide dihydrochloride], the Ki in assay [1] was 361 nM; in assay [2] (setting [3]), 128 nM. On D1 receptor (setting [4]), the EC50 was determined as 30 nM.
Regarding `Cc1ccc2c(c1O)C[C@@H](C1CCN(CC(c3ccccc3)c3ccccc3)CC1)O[C@H]2CN` [Example 28, (1R,3S)-1-Aminomethyl-3-[1-(2,2-diphenyl-ethyl)-piperidin-4-yl]-6-methyl-isochroman-5-ol dihydrobromide], the Ki in assay [1] worked out at 180 nM; in assay [2] (setting [3]), 82 nM. The EC50 on D1 receptor (setting [4]) came out at 131 nM.
In the same order, the values of `Cc1ccc2c(c1O)C[C@@H](C1CCN(Cc3cccc(C(F)(F)F)c3)CC1)O[C@H]2CN` [Example 73, (1R,3S)-1-Aminomethyl-6-methyl-3-[1-(3-trifluoromethyl-benzyl)-piperidin-4-yl]-isochroman-5-ol dihydrochloride] are 431 nM, 63.5 nM and 15 nM.
Regarding `Cc1ccc2c(c1O)C[C@@H](C1CCN(Cc3ccc(F)c(F)c3)CC1)O[C@H]2CN` [Example 63, (1R,3S)-1-Aminomethyl-3-[1-(3,4-difluoro-benzyl)-piperidin-4-yl]-6-methyl-isochroman-5-ol dihydrochloride], the Ki in assay [2] (setting [3]) came out at 6.8 nM. The EC50 at D1 receptor (setting [4]) stood at 9 nM.

The record behind these values is patent US7919508B2, “3-piperidinylisochroman-5-ols as dopamine agonists” (Aventis Pharmaceuticals Inc., priority 2004, dated 2011).
